Data on nine compounds can be found in patent US20250034182A1, “PHOSPHOLIPID COMPOUNDS AND METHODS OF MAKING AND USING THE SAME” (priority 2021, published 2025).

Holding throughout (format): cell-based
In one data set the test system is HCV Replicon 1B. The data set can be described thus: HCV Replicon 1B EC50 (Example Q). The settings on record: Hepatitis C virus, 72 h, read-out: HCV Replicon 1B EC50 (nM) (per Ex. Q). How it is done:
(§1) Compounds were serially diluted in ten steps of 1:3 dilutions in 384-well plates. All serial dilutions were performed in four replicates per compound within the same 384-well plate. An HCV protease inhibitor ITMN-191 at […] was added as a control of 100% inhibition of HCV replication while puromycin at 10 mM was included as a control of 100% cytotoxicity. To each well of a black polystyrene 384-well plate (Greiner Bio-one, Monroe, NC), 90 μL of cell culture medium (without Geneticin) containing 2000 suspended HCV replicon cells was added with a Biotek μFlow workstation. For compound transfer into cell culture plates, 0.4 μL of compound solution from the compound serial dilution plate was transferred to the cell culture plate on a Biomek FX workstation. The DMSO concentration in the final assay wells was 0.44%. The plates were incubated for 3 days at 37° C. with 5% CO2 and 85% humidity. The HCV replicon assay was a multiplex assay, able to assess both cytotoxicity and antireplicon activity from the same well. The CC50 assay was performed first. The media in the 384-well cell culture plate was aspirated, and the wells were washed four times with 100 μL of PBS each, using a Biotek ELX405 plate washer. A volume of 50 μL of a solution containing 400 nM calcein AM (Anaspec, Fremont, CA) in 1×PBS was added to each well of the plate with a Biotek μFlow workstation. The plate was incubated for 30 min at room temperature before the fluorescence signal (excitation 490 nm, emission 520 nm) was measured with a Perkin-Elmer Envision plate reader. The EC50 assay was performed in the same wells as the CC50 assay. The calcein-PBS solution in the 384-well cell culture plate was aspirated with a Biotek ELX405 plate washer. A volume of 20 μL of Dual-Glo luciferase buffer (Promega, Madison, WI) was added to each well of the plate with a Biotek μFlow Workstation. The plate was incubated for 10 min at room temperature. A volume of 20 μL of a solution containing a 1:100 mixture of Dual-Glo Stop & Glo substrate (Promega, Madison, WI) and Dual-Glo Stop & Glo buffer (Promega, Madison, WI) was added to each well of the plate with a Biotek μFlow Workstation. The plate was then incubated at room temperature for 10 min before the luminescence signal was measured with a Perkin-Elmer Envision Plate Reader.
Background: In antiviral work, replicon cells carry a viral genome segment that copies itself.

Data set [1] is described as follows: HCV Replicon 2A CC50, calcein AM (Example Q). The settings on record: calcein AM fluorescence, read-out: HCV Replicon 2A CC50 (nM) (per Ex. Q). The procedure: as §1
In a further data set the test system is HCV Replicon 2A. The data set can be described thus: HCV Replicon 2A EC50 (Example Q). The settings on record: Hepatitis C virus, 72 h, read-out: HCV Replicon 2A EC50 (nM) (per Ex. Q). The procedure: as §1
Data set [2] in a line: in vitro. The settings on record: human. How it is done:
H1-HeLa cell viability was measured using the CellTiter-Glo® Luminescent Cell Viability Assay kit (Promega, Cat #G7573) according to the manufacturer's protocol. H1-HeLa cells were maintained in Dulbecco's Modified Eagle's Medium with high glucose (Gibco, Cat #: 11995073) supplemented with 10% FBS (HyClone, Cat #: SH303396.03), 100 units/mL penicillin and 100 µg/mL streptomycin (Gibco, Cat #: 15140122). One day before compound treatment, H1-HeLa cells were seeded at […] into 96-well plates (Corning, Cat #3904) in Opti-MEM (Gibco, Cat #: 31985070) supplemented with 2% FBS, and were incubated at 37° C. in a 100% humid atmosphere containing 5% (v/v) CO2. After overnight incubation, the cells were treated with three-fold serial dilutions of the compound. At 96 hours post treatment, CellTiter-Glo reagents were added into each well and luminescence signals were recorded by an EnVision plate reader. The relative cell viability was calculated by normalizing the absorbance of the compound-treated groups to that of the DMSO-treated groups (set as 100% viability) and 10 μM puromycin treated groups (set as 0% viability). The CC50 (compound concentration for reducing 50% of cell viability) was calculated using a nonlinear regression model (four parameters).

Data set [3] is described as follows: in vitro. The settings on record: human. This is another data set of the same source.
A short description of data set [4]: HCV Replicon 1B CC50, calcein AM (Example Q). The settings on record: calcein AM fluorescence, read-out: HCV Replicon 1B CC50 (nM) (per Ex. Q). The procedure:
as §1

The mark [5] stands for this setting: HCV replicon cells, 3 days, Dual-Glo luciferase.

Where two headings read alike, the source gives them in different places. Some results are limits rather than exact numbers.

Regarding `CCCCCCCCCCCCCCCCCCOC[C@H](COP(=O)(O)OC[C@@]1(C#N)O[C@@H](c2ccc3c(N)ncnn23)[C@H](O)[C@@H]1O)OCc1cc(F)cc(C#N)c1` [Compound 1, ((2R,3S,4R,5S)-5-(4-aminopyrrolo[2,1-f][1,2,4]triazin-7-yl)-2-cyano-3,4-dihydroxytetrahydrofuran-2-yl)methyl ((R)-2-((3-cyano-5-fluorobenzyl)oxy)-3-(octadecyloxy)propyl) hydrogen phosphate], the EC50 in the data set with HCV Replicon 1B (setting [5]) was 13800 nM; with HCV Replicon 2A (setting [5]) it was 20600 nM. Further, the CC50 at 3 days in data set [1] (HCV replicon cells (2A)) and in data set [4] (HCV replicon cells (1B)) was more than 44400 nM throughout. The same compound returned a CC50 at 96 h in “in vitro [2]” of 3.62 µM. The compound also had a CC50 in the data set “in vitro [3]” of 18 µM.
With `CCCCCCCCCCCCCCCCCCOC[C@H](COP(=O)(O)OC[C@@]1(C#N)O[C@@H](c2ccc3c(N)ncnn23)[C@H](O)[C@@H]1O)OCc1ccc(C#N)c(Cl)c1` [Compound 7, ((2R,3S,4R,5S)-5-(4-aminopyrrolo[2,1-f][1,2,4]triazin-7-yl)-2-cyano-3,4-dihydroxytetrahydrofuran-2-yl)methyl ((R)-2-((3-chloro-4-cyanobenzyl)oxy)-3-(octadecyloxy)propyl) hydrogen phosphate], the EC50 is 16700 nM with HCV Replicon 1B (setting [5]) and 30600 nM with HCV Replicon 2A (setting [5]). Further, the CC50 at 3 days in data set [1] (HCV replicon cells (2A)) and in data set [4] (HCV replicon cells (1B)) was more than 44400 nM in each case. In “in vitro [2]”, the CC50 at 96 h came to 3.88 µM. In “in vitro [3]”, this compound displayed a CC50 of 19 µM.
`CCCCCCCCCCCCCCCCCCC[C@H](COP(=O)(O)OC[C@@]1(C#N)O[C@@H](c2ccc3c(N)ncnn23)[C@H](O)[C@@H]1O)OCc1ccc(-n2cncn2)c(C#N)c1` [Compound 30, ((2R,3S,4R)-5-(4-aminopyrrolo[2,1-f][1,2,4]triazin-7-yl)-2-cyano-3,4-dihydroxytetrahydrofuran-2-yl)methyl ((R)-2-((3-cyano-4-(1H-1,2,4-triazol-1-yl)benzyl)oxy)henicosyl) hydrogen phosphate]: the EC50 with HCV Replicon 1B was found to be 3990 nM; in the data set with HCV Replicon 2A it was 15800 nM. For the same compound, the figures for the CC50 at 3 days in data set [1] (HCV replicon cells) and in data set [4] (HCV replicon cells) were 42400 nM and more than 44400 nM, respectively. Besides, in “in vitro [2]”, the CC50 at 96 h worked out at 4.96 µM. It took 5.9 µM to reach half-maximal cytotoxicity in the data set “in vitro [3]” (CC50).
Take `CCCCCCCCCCCCCCCCC[C@H](COP(=O)(O)OC[C@@]1(C#N)O[C@@H](c2ccc3c(N)ncnn23)[C@H](O)[C@@H]1O)OCc1cc(F)cc(C#N)c1` [Compound 36, ((2R,3S,4R,5S)-5-(4-aminopyrrolo[2,1-f][1,2,4]triazin-7-yl)-2-cyano-3,4-dihydroxytetrahydrofuran-2-yl)methyl ((R)-2-((3-cyano-5-fluorobenzyl)oxy)nonadecyl) hydrogen phosphate]: the EC50 came out at 26300 nM with HCV Replicon 1B and 21800 nM in the data set on HCV Replicon 2A. The CC50 at 3 days in data set [1] (HCV replicon cells) and in data set [4] (HCV replicon cells) was more than 44400 nM each time. This compound also displayed a 50% cytotoxic concentration (CC50) at 96 h in the data set “in vitro [2]” of 9.56 µM. The compound further gave a CC50 in the data set “in vitro [3]” of 17 µM.
Take `CCCCCCCCCCCCCCCCCCOC[C@@H](COP(=O)(O)OC[C@@]1(C#N)O[C@@H](c2ccc3c(N)ncnn23)[C@H](O)[C@@H]1O)Oc1ccc(C#N)nc1` [Compound 72, ((2R,3S,4R,5S)-5-(4-aminopyrrolo[2,1-f][1,2,4]triazin-7-yl)-2-cyano-3,4-dihydroxytetrahydrofuran-2-yl)methyl ((S)-2-((6-cyanopyridin-3-yl)oxy)-3-(octadecyloxy)propyl) hydrogen phosphate]: the EC50 was 465 nM with HCV Replicon 1B and more than 44400 nM in the data set on HCV Replicon 2A. Besides, the CC50 at 3 days in data set [1] (HCV replicon cells) and in data set [4] (HCV replicon cells) was more than 44400 nM each time. In “in vitro [2]”, this compound came in with a CC50 at 96 h of 5.1 µM. In “in vitro [3]”, this compound yielded a CC50 of 17 µM.
With `CCCCCCCCCCCCCCCC[C@@H](COP(=O)(O)OC[C@@]1(C#N)O[C@@H](c2ccc3c(N)ncnn23)[C@H](O)[C@@H]1O)OCc1cc(F)cc(C#N)c1` [Compound 79, ((2R,3S,4R,5S)-5-(4-aminopyrrolo[2,1-f][1,2,4]triazin-7-yl)-2-cyano-3,4-dihydroxytetrahydrofuran-2-yl)methyl ((S)-2-((3-cyano-5-fluorobenzyl)oxy)octadecyl) hydrogen phosphate], the EC50 is 24300 nM in the data set on HCV Replicon 1B (setting [5]) and 20000 nM in the data set with HCV Replicon 2A (setting [5]). Moreover, the CC50 at 3 days in data set [1] (HCV replicon cells (2A)) is 30200 nM; in data set [4] (HCV replicon cells (1B)) it was more than 44400 nM. The midpoint of cytotoxicity in “in vitro [2]”, the CC50 at 96 h, lay at 6.74 µM.
In the same order, the values of `CCCCCCCCCCCCCCC[C@H](COP(=O)(O)OC[C@@]1(C#N)O[C@@H](c2ccc3c(N)ncnn23)[C@H](O)[C@@H]1O)OCc1cc(F)cc(C#N)c1` [Compound 80, ((2R,3S,4R,5S)-5-(4-aminopyrrolo[2,1-f][1,2,4]triazin-7-yl)-2-cyano-3,4-dihydroxytetrahydrofuran-2-yl)methyl ((R)-2-((3-cyano-5-fluorobenzyl)oxy)heptadecyl) hydrogen phosphate] are 32400 nM, 21200 nM, 36900 nM, more than 44400 nM and 7.08 µM.
Turning to `CCCCCCCCCCCCCCCCCC[C@H](COP(=O)(O)OC[C@@]1(C#N)O[C@@H](c2ccc3c(N)ncnn23)[C@H](O)[C@@H]1O)OCc1cc(Cl)cc(C#N)c1` [Compound 81, ((2R,3S,4R,5S)-5-(4-aminopyrrolo[2,1-f][1,2,4]triazin-7-yl)-2-cyano-3,4-dihydroxytetrahydrofuran-2-yl)methyl ((R)-2-((3-chloro-5-cyanobenzyl)oxy)icosyl) hydrogen phosphate], the EC50 with HCV Replicon 1B (setting [5]) amounted to 10700 nM; in the data set with HCV Replicon 2A (setting [5]) it was 15900 nM. Also, the CC50 at 3 days is 37900 nM in data set [1] (HCV replicon cells (2A)) and more than 44400 nM in data set [4] (HCV replicon cells (1B)). In the data set “in vitro [2]”, the CC50 at 96 h stood at 4.52 µM.
Consider `CCCCCCCCCCCCCCCCCCC[C@H](COP(=O)(O)OC[C@@]1(C#N)O[C@@H](c2ccc3c(N)ncnn23)[C@H](O)[C@@H]1O)OCc1cc(Cl)cc(C#N)c1` [Compound 82, ((2R,3S,4R,5S)-5-(4-aminopyrrolo[2,1-f][1,2,4]triazin-7-yl)-2-cyano-3,4-dihydroxytetrahydrofuran-2-yl)methyl ((R)-2-((3-chloro-5-cyanobenzyl)oxy)henicosyl) hydrogen phosphate], for which the EC50 with HCV Replicon 1B turned out to be 11300 nM; in the data set with HCV Replicon 2A (setting [5]), 19200 nM. In addition, the figures for the CC50 at 3 days in data set [1] (HCV replicon cells (2A)) and in data set [4] (HCV replicon cells (1B)) were 37600 nM and more than 44400 nM, respectively. In the data set “in vitro [2]”, this compound displayed a CC50 at 96 h of 4.03 µM.

One may read the EC50 as the concentration needed to bring the measured effect to its halfway point. As usually defined, the CC50 is the concentration at which the toxic effect on the cells reaches its halfway point.
